Test results from ChEMBL document CHEMBL1137917, “Synthesis and structure-activity investigation of iodinated arylhydantoins and arylthiohydantoins for development as androgen receptor radioligands” (Bioorg Med Chem Lett, 2004).

Biological target: T1, Androgen receptor (Rattus norvegicus, UniProt P15207)
T1 sequence (P15207 whole entry): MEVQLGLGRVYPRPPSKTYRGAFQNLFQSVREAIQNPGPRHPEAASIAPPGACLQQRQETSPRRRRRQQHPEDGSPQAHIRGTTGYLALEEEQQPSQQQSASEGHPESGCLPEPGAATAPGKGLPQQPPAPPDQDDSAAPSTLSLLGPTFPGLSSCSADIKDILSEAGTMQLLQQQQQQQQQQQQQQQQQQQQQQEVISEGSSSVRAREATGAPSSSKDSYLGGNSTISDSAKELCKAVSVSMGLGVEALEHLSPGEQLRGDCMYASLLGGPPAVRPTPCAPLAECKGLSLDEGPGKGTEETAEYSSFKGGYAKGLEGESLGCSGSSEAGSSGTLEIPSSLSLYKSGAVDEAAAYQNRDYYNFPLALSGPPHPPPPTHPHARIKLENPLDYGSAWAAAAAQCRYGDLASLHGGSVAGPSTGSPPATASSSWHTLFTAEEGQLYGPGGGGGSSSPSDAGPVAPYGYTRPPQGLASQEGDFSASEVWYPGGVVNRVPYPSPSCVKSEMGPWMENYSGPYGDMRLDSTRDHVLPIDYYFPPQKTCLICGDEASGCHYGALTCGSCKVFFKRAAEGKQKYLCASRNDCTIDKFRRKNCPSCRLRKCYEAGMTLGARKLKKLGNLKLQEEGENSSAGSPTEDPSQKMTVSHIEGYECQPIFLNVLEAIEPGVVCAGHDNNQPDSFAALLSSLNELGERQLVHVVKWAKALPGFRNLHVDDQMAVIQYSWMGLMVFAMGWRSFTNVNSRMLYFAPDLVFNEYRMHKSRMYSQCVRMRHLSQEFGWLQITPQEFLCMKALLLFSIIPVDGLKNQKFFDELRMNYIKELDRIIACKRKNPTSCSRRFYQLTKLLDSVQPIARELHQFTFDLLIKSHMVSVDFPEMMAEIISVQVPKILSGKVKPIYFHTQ
Assay: Inhibition of rat prostate cytosolic androgen receptor

Structure (SMILES)	Ki [nM]
COCCN1C(=S)N(c2ccc(C#N)c(I)c2)C(=O)C1(C)C	37
CC1(C)C(=O)N(c2ccc(C#N)c(I)c2)C(=O)N1CCCc1ccccc1	639
CCCCN1C(=S)N(c2ccc(C#N)c(I)c2)C(=O)C1(C)C	117
CC1(C)C(=O)N(c2ccc(C#N)c(I)c2)C(=S)N1Cc1ccccc1	219
CCCCN1C(=O)N(c2ccc(C#N)c(I)c2)C(=O)C1(C)C	77
CN1C(=S)N(c2ccc(C#N)c(I)c2)C(=O)C1(C)C	2.5
CC1(C)C(=O)N(c2ccc(C#N)c(I)c2)C(=O)N1CCCCO	2
C=CCN1C(=O)N(c2ccc(C#N)c(I)c2)C(=O)C1(C)C	59
